We go through two molecules from ChEMBL document CHEMBL1121395, “[5-(N4,N4-Dimethylasparagine),8-lysine]vasopressin: the first 5-position neurohypophyseal hormone analogue to retain to retain significant antidiuretic potency” (1980).

The test system of assay [1] is Rattus norvegicus. Description: In vivo antidiuretic potency of compound was determined in rat.
For assay [2], the species on record is Rattus norvegicus. Briefly: Pressor potency of compound was determined in rat. It counts as functional.
The species entered for assay [3] is Rattus norvegicus. Description: In vitro uterotonic potency of compound was determined in rat. The assay is classed as functional.
For assay [4], the species on record is Gallus gallus. Briefly: Avian vasodepressor potency of compound was determined.

`NCCCC[C@H](NC(=O)[C@@H]1CCCN1C(=O)[C@@H]1CSSC[C@H](N)C(=O)N[C@@H](Cc2ccc(O)cc2)C(=O)N[C@@H](Cc2ccccc2)C(=O)N[C@@H](CCC(N)=O)C(=O)N[C@@H](CC(N)=O)C(=O)N1)C(=O)NCC(N)=O` yielded an Activity in assay [1] of 203 mg.
On to `CN(C)C(=O)C[C@@H]1NC(=O)[C@H](CCC(N)=O)NC(=O)[C@H](Cc2ccccc2)NC(=O)[C@H](Cc2ccc(O)cc2)NC(=O)[C@@H](N)CSSC[C@@H](C(=O)N2CCC[C@H]2C(=O)N[C@@H](CCCCN)C(=O)NCC(N)=O)NC1=O`, for which the Activity in assay [2] is 2.55 mg; in assay [3], < 0.05 mg; in assay [1], 5.5 mg; in assay [4], 0.39 mg.
